According to PubChem BioAssay AID1918998 (Molecular Pharmacology Branch, DTP, NCI, 2023):
pIC50: −log10 of the molar value.

Test system: 521955-158-R2-J5-PDC complex spheroid growth
Assay: Anticancer human tumor 521955-158-R2-J5-PDC patient-derived pancreatic carcinoma cell line growth inhibition [AhR]
Conditions: for pIC50: curve of first compound; for viability, T/C: stronger effect = lower value
Excerpt: Multicellular complex tumor spheroid response to aryl hydrocarbon receptor antagonists in combination with a variety of drugs and investigational agents in selected tumor cell lines
The current study was undertaken to assess response to aryl hydrocarbon receptor antagonists in combination with standard-of-care drugs and investigational agents in solid tumor complex spheroid models. Complex spheroids include a stromal component modeled by human endothelial cells (HUVEC) and fibroblasts modeled by human mesenchymal stem cells (MSCs). The concentration ranges selected for each drug and investigational agent were based upon clinically achievable concentrations if the clinical Cmax of the agent was known.
Compounds. The drugs and investigational agents: BAY 2416964 (NSC825713), GNF351 (NSC835774), CH-223191 (NSC835775), CPI-455 (NSC825282), aza-TdCyd (NSC777586), decitabine (NSC127716), belinostat (NSC758774), entinostat (NSC756642), pevonedistat (NSC761192), tazemetostat (NSC777109), talazoparib (NSC765396), olaparib (NSC753686), selinexor (NSC780203), nedisertib (M3814, NSC802822), bortezomib (NSC756655), venetoclax (NSC766270), doxorubicin (NSC123127), elimusertib (BAY189344, NSC800525), ceralasertib (AZD6738, NSC777638), TAK-243 (NSC785004), alisertib (NSC759677), etoposide (NSC141540), topotecan (NSC609699), eribulin (NSC707389), gemcitabine (NSC613327), carboplatin (NSC241240), cisplatin (NSC119875), and SN-38 (NSC673596) were obtained from the National Cancer Institute (NCI) Developmental Therapeutics Program Chemical Repository (32). The FDA-approved anticancer drug set is available from the Developmental Therapeutics Program at https://dtp.cancer.gov/organization/dscb/obtaining/available plates.htm. […] The stock solutions were prepared in dimethyl sulfoxide (DMSO, Sigma-Aldrich, St. Louis, MO, cat. D2650), except for the platinum compounds which were prepared in saline (Quality Biological, Gaithersburg, MD, cat. 114-055-101), at 800-fold the tested concentration and stored at -70 degrees C prior to their use. All drugs and investigational agents were tested over a range starting from a high concentration at or near the clinical Cmax and decreasing in half-log increments. If the clinical Cmax for an agent had not been determined, the highest concentration tested was 10 microM (Table 1).
Cell Culture. All cells were maintained in an incubator at 37 degrees C and 5% CO2 with 95% humidity. The PDC lines were cultured according to standard operating procedures established by the NCI PDMR (https://pdmr.cancer.gov). Briefly, all PDCs were thawed and cultured in Matrigel-coated flasks prepared with a working solution of 1X Ham's F-12 nutrient mix, without supplementation (Invitrogen, Waltham, MA, cat. 11765054), 100 U/mL penicillin-streptomycin (Invitrogen, cat. 15140122), and 2.5% Matrigel (Corning Inc., Corning, NY, cat. 354248) for the first three passages. All PDCs were cultured in complete DMEM/F-12 media containing advanced DMEM/F-12 (Invitrogen, cat. 12634028), 4.9% defined fetal bovine serum, heat inactivated (HyClone Laboratories Inc., Logan, UT, cat. SH30070.03HI), 389 ng/mL hydrocortisone (Sigma-Aldrich, cat. H4001), 9.7 ng/mL human EGF recombinant protein (Invitrogen, cat. PHG0313), 23.4 microg/mL adenine (Sigma-Aldrich, cat. A2786), 97.3 U/mL penicillin-streptomycin (Invitrogen, cat. 15140122), 1.9 mM L-glutamine (Invitrogen, cat. 25030081), and 9.7 microM Y-27632 dihydrochloride (Tocris Bioscience, Bristol, United Kingdom, cat. 1254). The PDCs were cultured in complete DMEM/F12 media without 10 microM Y-27632 dihydrochloride for at least two passages prior to the screen. The established cell lines NCI-H1341 and […] were cultured in DMEM/F-12, HEPES (Invitrogen, cat. 11330032), 5% defined fetal bovine serum (HyClone Laboratories Inc., cat. SH30070.03), ITS premix universal culture supplement [insulin (5 microg/mL), transferrin (5 microg/mL), and selenious acid (5 ng/mL)] […]

[1] = second compound 0.1 µM, first compound 0.00949 µM
[2] = second compound 0.1 µM, first compound 0.03 µM
[3] = second compound 0.1 µM, first compound 0.0949 µM
[4] = second compound 0.1 µM, first compound 0.3 µM
[5] = second compound 0.1 µM, first compound 0.949 µM
[6] = second compound 0.1 µM, first compound 3 µM
[7] = second compound 0.316 µM, first compound 0.00949 µM
[8] = second compound 0.316 µM, first compound 0.03 µM
[9] = second compound 0.316 µM, first compound 0.0949 µM
[10] = second compound 0.316 µM, first compound 0.3 µM
[11] = second compound 0.316 µM, first compound 0.949 µM
[12] = second compound 0.316 µM, first compound 3 µM
[13] = second compound 1 µM, first compound 0.00949 µM
[14] = second compound 1 µM, first compound 0.03 µM
[15] = second compound 1 µM, first compound 0.0949 µM
[16] = second compound 1 µM, first compound 0.3 µM
[17] = second compound 1 µM, first compound 0.949 µM
[18] = second compound 1 µM, first compound 3 µM
[19] = second compound 3.16 µM, first compound 0.00949 µM
[20] = second compound 3.16 µM, first compound 0.03 µM
[21] = second compound 3.16 µM, first compound 0.0949 µM
[22] = second compound 3.16 µM, first compound 0.3 µM
[23] = second compound 3.16 µM, first compound 0.949 µM
[24] = second compound 3.16 µM, first compound 3 µM
[25] = second compound 10 µM, first compound 0.00949 µM
[26] = second compound 10 µM, first compound 0.03 µM
[27] = second compound 10 µM, first compound 0.0949 µM
[28] = second compound 10 µM, first compound 0.3 µM
[29] = second compound 10 µM, first compound 0.949 µM
[30] = second compound 10 µM, first compound 3 µM
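Throughout, for viability, T/C: spheroids mix tumor cells with HUVEC endothelium and human MSC stroma; luminescence taken as viability surrogate after a week of drug exposure.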

| SMILES | pIC50 (second compound 0.1 µM) | pIC50 (second compound 0.316 µM) | pIC50 (second compound 1 µM) | pIC50 (second compound 3.16 µM) | pIC50 (second compound 10 µM) | viability, T/C [1] | viability, T/C [2] | viability, T/C [3] | viability, T/C [4] | viability, T/C [7] | viability, T/C [8] | viability, T/C [9] | viability, T/C [10] | viability, T/C [13] | viability, T/C [14] | viability, T/C [15] | viability, T/C [16] | viability, T/C [19] | viability, T/C [20] | viability, T/C [21] | other results |
| --- | --- | --- | --- | --- | --- | --- | --- | --- | --- | --- | --- | --- | --- | --- | --- | --- | --- | --- | --- | --- | --- |
| O=C(C=Cn1cnc(-c2cc(C(F)(F)F)cc(C(F)(F)F)c2)n1)NNc1cnccn1 + Cc1ccccc1N=Nc1ccc(NC(=O)c2ccnn2C)c(C)c1 | 7.40 | > 8.02 | 7.73 | > 8.02 | 6.85 | 59% | 50.4% | 41.2% | 39.5% | 54.8% | 43.1% | 39.3% | 46.1% | 55.8% | 42.6% | 45.1% | 36.2% | 53.8% | 51.4% | 47.6% | viability, T/C [5]: 40.2%; viability, T/C [6]: 21.5%; viability, T/C [11]: 40.8%; viability, T/C [12]: 24.6%; viability, T/C [17]: 38.4%; viability, T/C [18]: 31.8%; viability, T/C [22]: 40.8%; viability, T/C [23]: 50.2%; viability, T/C [24]: 29.8%; viability, T/C [25]: 91%; viability, T/C [26]: 66.2%; viability, T/C [27]: 47.6%; viability, T/C [28]: 53.4%; viability, T/C [29]: 38.2%; viability, T/C [30]: 32.9% |
| CCN(c1cc(-c2ccc(CN3CCOCC3)cc2)cc(C(=O)NCc2c(C)cc(C)[nH]c2=O)c1C)C1CCOCC1 + Cc1cncc(-c2nc(NCCc3c[nH]c4ccccc34)c3ncn(C(C)C)c3n2)c1 | < 5.52 | < 5.52 | < 5.52 | < 5.52 | < 5.52 | 118% | 112% | 124% | 94.7% | 99.5% | 108% | 106% | 109% | 125% | 130% | 122% | 118% | 158% | 133% | 130% | viability, T/C [5]: 117%; viability, T/C [6]: 95.9%; viability, T/C [11]: 110%; viability, T/C [12]: 104%; viability, T/C [17]: 99.6%; viability, T/C [18]: 115%; viability, T/C [22]: 148%; viability, T/C [23]: 110%; viability, T/C [24]: 124%; viability, T/C [25]: 112%; viability, T/C [26]: 140%; viability, T/C [27]: 111%; viability, T/C [28]: 116%; viability, T/C [29]: 84.2%; viability, T/C [30]: 72.3% |
| CCc1c2c(nc3ccc(O)cc13)-c1cc3c(c(=O)n1C2)COC(=O)[C@]3(O)CC + Cc1ccccc1N=Nc1ccc(NC(=O)c2ccnn2C)c(C)c1 | 8.39 | 8.32 | 8.33 | 8.19 | 8.15 | 36.5% | 27% | 18.6% | 13.8% | 34.1% | 22.3% | 17% | 12.9% | 30.2% | 23.2% | 17.5% | 14.3% | 33.9% | 23.5% | 15.3% | viability, T/C (second compound 0.1 µM, first compound 0.000949 µM): 65.2%; viability, T/C (second compound 0.1 µM, first compound 0.003 µM): 56%; viability, T/C (second compound 0.316 µM, first compound 0.000949 µM): 74.3%; viability, T/C (second compound 0.316 µM, first compound 0.003 µM): 60.9%; viability, T/C (second compound 1 µM, first compound 0.000949 µM): 91.7%; viability, T/C (second compound 1 µM, first compound 0.003 µM): 61.8%; viability, T/C (second compound 3.16 µM, first compound 0.000949 µM): 95.3%; viability, T/C (second compound 3.16 µM, first compound 0.003 µM): 78.3%; viability, T/C [22]: 11.7%; viability, T/C (second compound 10 µM, first compound 0.000949 µM): 114%; viability, T/C (second compound 10 µM, first compound 0.003 µM): 89.8%; viability, T/C [25]: 35.1%; viability, T/C [26]: 24.1%; viability, T/C [27]: 16.2%; viability, T/C [28]: 11.5% |
